Test results reported in patent US20210382051A1, “METHODS AND COMPOUND FOR THE IDENTIFICATION AND TREATMENT OF TUBERCULOSIS” (priority 2020, published 2021).

Columns and labels:
[1] = target: protease (PR) enzyme (Human immunodeficiency virus type 1 group M subtype B, UniProt P04585); test: Effect on protease (PR) enzyme; assay type: biochemical, HIV
Description: (§1) Referring to FIGS. 2A and 2B, an anti-pathogenic agent and/or the anti-pathogenic compound may be identified as 90I (or 90i). The anti-pathogenic compound may be derived from the herbal extract identified as H2K1001. […] The essence of combination drug therapy, HAART regiments, may be its effectiveness against all HIV-1 strains that is potent enough to bring the viral load down to an undetectable level. This may be achieved by combining an RT and a PR combination synergy to affect multiple modes of action.

[2] = target: reverse transcriptase (Human immunodeficiency virus type 1 group M subtype B, UniProt P04585); test: Effect on reverse transcriptase; assay type: biochemical, HIV
Description: as §1

[3] = test system: gamma interferon production in monocyte and/or macrophage primary cell; test: Production of gamma interferon by cells receiving 90I (FIG. 3); assay type: cell-based; conditions: compared with positive control PMA-lonomycin combination; ten days assay, single time point drug addition
Description: FIG. 3 illustrates a graph showing production of gamma interferon by cells receiving 90I compared to other drugs, according to an exemplary embodiment of the present general inventive concept.
Referring to FIG. 3, this assay may underscore 90I's absorptions in a monocyte and/or a macrophage primary cell, such that the anti-pathogenic compound may have stability and longer pharmacokinetic half-life in ten days assay with single time point drug addition.
Moreover, activated CD8+ cells are reported to produce high levels of gamma interferon, which may be involved in the anti-TB immune responses, contributing to both control of bacterial spread and concomitant lymphoid follicular lyses. […] This finding may have a far-reaching implication and relevant in that H2K1001 and/or 90I has the potential in the restoration of immune competence, a strong immune modulator. 90I may be as strong as a vaccine because it may modulate the immune cell signal switch from Th2 to Th1 (i.e. a subset of T lymphocytes that express CD4 and are known as T-helper cells, they produce cytokines, specifically Th1-type cytokines). T-helper subset population Th1 and Th2 subset have been identified in animals and humans based on cytokines secreted. […]

[4] = test system: HIV strains; test: Activity against HIV strains; assay type: cell-based; conditions: all HIV strains
Description: as §1

SMILES: O=C(OCCOCCOC(=O)c1ccccc1)c1ccccc1 [90I, diethylene glycol dibenzoate]
- effectiveness against protease (PR) enzyme [1]: potently effective
- effectiveness against reverse transcriptase [2]: potently effective
- amount of gamma interferon produced [3]: equivalent to that of the positive control
- potency against HIV strains [4]: highly potent against all HIV strains
